Patent US4401660A, “Ester derivatives of 5-O-mycaminosyl tylonolide and method of using same” (Eli Lilly and Company, priority 1981, dated 1983)

Legend:
[1] = tested on: Pasteurella multocida; assay: Treatment of Pasteurella infections in chicks (Table V); type: in vivo, one-day-old chicks; details: Pasteurella multocida, sc, 4 h; 30 mg/kg by subcutaneous injection one and four hours post challenge; read-out: Deaths in Treated Chicks/Number Treated (converted)
Description: Certain OMT ester derivatives are active in vivo against Pasteurella infections. Table V summarizes the results of tests in which the ester derivatives were administered to one-day-old chicks at a dosage level of 30 mg/kg by subcutaneous injection one and four hours post challenge of the chicks with Pasteurella multocida (0.1 ml of a 10^-3 dilution of a 20-hour tryptose broth culture of avian P. multocida given subcutaneously). All nonmedicated infected chicks (ten in each control group) died within 24 hours of Pasteurella challenge.

[2] = tested on: Staphylococcus epidermidis EPI1; assay: MIC, standard agar-dilution assay (Table II); type: cell-based; set-up: unit not given here
Description: (§1) The MIC's in Table II were determined by standard agar-dilution assays. The MIC's in Table III were obtained using a conventional broth-dilution microtiter test.

[3] = tested on: Staphylococcus aureus S13E; assay: MIC, standard agar-dilution assay (Table II); type: cell-based; set-up: unit not given here
Description: as §1

[4] = tested on: Staphylococcus epidermidis EPI2; assay: MIC, standard agar-dilution assay (Table II); type: cell-based; set-up: unit not given here
Description: as §1

[5] = tested on: Staphylococcus aureus V41; assay: MIC, standard agar-dilution assay (Table II); type: cell-based; set-up: unit not given here; details: Staphylococcus aureus V41, penicillin-resistant strain
Description: as §1

[6] = tested on: Streptococcus pyogenes C203; assay: MIC, standard agar-dilution assay (Table II); type: cell-based; set-up: unit not given here
Description: as §1

[7] = tested on: Staphylococcus aureus X1.1; assay: MIC, standard agar-dilution assay (Table II); type: cell-based; set-up: unit not given here
Description: as §1

[8] = tested on: Streptococcus Group D 9960; assay: MIC, standard agar-dilution assay (Table II); type: cell-based; set-up: unit not given here
Description: as §1

[9] = tested on: Streptococcus Group D X66; assay: MIC, standard agar-dilution assay (Table II); type: cell-based; set-up: unit not given here
Description: as §1

[10] = tested on: Staphylococcus aureus X400; assay: MIC, standard agar-dilution assay (Table II); type: cell-based; set-up: unit not given here; details: Staphylococcus aureus X400, methicillin-resistant strain
Description: as §1

[11] = tested on: Streptococcus pneumoniae Park I; assay: MIC, standard agar-dilution assay (Table II); type: cell-based; set-up: unit not given here
Description: as §1

[12] = tested on: Pasteurella haemolytica 23C; assay: MIC, broth-dilution microtiter test (Table III); type: cell-based; set-up: unit not given here
Description: as §1

[13] = tested on: Pasteurella multocida 17E; assay: MIC, broth-dilution microtiter test (Table III); type: cell-based; set-up: unit not given here; details: bovine isolate
Description: as §1

[14] = tested on: Streptococcus sp. 80; assay: MIC, broth-dilution microtiter test (Table III); type: cell-based; set-up: unit not given here
Description: as §1

[15] = tested on: Mycoplasma hyorhinis; assay: MIC, broth-dilution microtiter test (Table III); type: cell-based; set-up: unit not given here
Description: as §1

[16] = tested on: Mycoplasma synoviae; assay: MIC, broth-dilution microtiter test (Table III); type: cell-based; set-up: unit not given here
Description: as §1

[17] = tested on: Pasteurella haemolytica 22C; assay: MIC, broth-dilution microtiter test (Table III); type: cell-based; set-up: unit not given here
Description: as §1

[18] = tested on: Pasteurella haemolytica 41D; assay: MIC, broth-dilution microtiter test (Table III); type: cell-based; set-up: unit not given here
Description: as §1

[19] = tested on: Pasteurella multocida 60A; assay: MIC, broth-dilution microtiter test (Table III); type: cell-based; set-up: unit not given here; details: avian isolate
Description: as §1

[20] = tested on: Pasteurella multocida 40G; assay: MIC, broth-dilution microtiter test (Table III); type: cell-based; set-up: unit not given here
Description: as §1

[21] = tested on: Pasteurella multocida 22A; assay: MIC, broth-dilution microtiter test (Table III); type: cell-based; set-up: unit not given here
Description: as §1

[22] = tested on: Mycoplasma gallisepticum; assay: MIC, broth-dilution microtiter test (Table III); type: cell-based; set-up: unit not given here
Description: as §1

[23] = tested on: Staphylococcus aureus; assay: MIC, broth-dilution microtiter test (Table III); type: cell-based; set-up: unit not given here
Description: as §1

[24] = tested on: Pasteurella multocida 68C; assay: MIC, broth-dilution microtiter test (Table III); type: cell-based; set-up: unit not given here
Description: as §1

[25] = tested on: Haemophilus influenzae Holt; assay: MIC, standard agar-dilution assay (Table II); type: cell-based; set-up: unit not given here; details: ampicillin-sensitive strain
Description: as §1

[26] = tested on: Haemophilus influenzae R252; assay: MIC, standard agar-dilution assay (Table II); type: cell-based; set-up: unit not given here; details: Haemophilus influenzae R252, ampicillin-resistant strain
Description: as §1

Row | Structure (SMILES) | mortality at 30 mg/kg [1] [%] | minimal inhibitory concentration (MIC) [2] | minimal inhibitory concentration (MIC) [3] | minimal inhibitory concentration (MIC) [4] | minimal inhibitory concentration (MIC) [5] | minimal inhibitory concentration (MIC) [6] | minimal inhibitory concentration (MIC) [7] | minimal inhibitory concentration (MIC) [8] | minimal inhibitory concentration (MIC) [9] | minimal inhibitory concentration (MIC) [10] | minimal inhibitory concentration (MIC) [11] | minimal inhibitory concentration (MIC) [13] | minimal inhibitory concentration (MIC) [14] | minimal inhibitory concentration (MIC) [15] | minimal inhibitory concentration (MIC) [16] | minimal inhibitory concentration (MIC) [19] | minimal inhibitory concentration (MIC) [22] | minimal inhibitory concentration (MIC) [23] | minimal inhibitory concentration (MIC) [25] | minimal inhibitory concentration (MIC) [26] | further results
1 | CCC1OC(=O)CC(O)C(C)C(OC2OC(C)C(OC(C)=O)C(N(C)C)C2OC(C)=O)C(CC=O)CC(C)C(=O)C=CC(C)=CC1COC(=O)Cc1cccnc1 (stereo not drawn) [Compound 43, 2',4'-Di-O-acetyl-23O-(3-pyridylacetyl)-OMT] | 80 | 0.25 | 0.25 | 0.5 | 0.5 | 0.06 | 0.25 | 0.25 | 0.25 | 0.5 | 0.06 | 3.12 | 0.195 | 0.78 | < 0.05 | 3.12 | 0.78 | 0.39 | – | – | minimal inhibitory concentration (MIC) [12]: 6.25; minimal inhibitory concentration (MIC) [17]: 6.25; minimal inhibitory concentration (MIC) [18]: 3.12; minimal inhibitory concentration (MIC) [20]: 3.12; minimal inhibitory concentration (MIC) [21]: 3.12; minimal inhibitory concentration (MIC) [24]: 1.56
2 | CCC1OC(=O)CC(O)C(C)C(OC2OC(C)C(O)C(N(C)C)C2OC(C)=O)C(CC=O)CC(C)C(=O)C=CC(C)=CC1COC(=O)Cc1ccc(Cl)cc1 (stereo not drawn) [Compound 31, 2'-O-Acetyl-23-O-(p-chlorophenylacetyl)-OMT] | 100 | 0.125 | 0.125 | 0.25 | 0.125 | 0.125 | 0.125 | 0.125 | 0.125 | 0.25 | 0.03 | 1.56 | < 0.05 | 3.12 | < 0.05 | 0.78 | < 0.05 | < 0.05 | – | – | minimal inhibitory concentration (MIC) [12]: 1.56; minimal inhibitory concentration (MIC) [17]: 1.56; minimal inhibitory concentration (MIC) [18]: 3.12; minimal inhibitory concentration (MIC) [20]: 1.56; minimal inhibitory concentration (MIC) [21]: 1.56; minimal inhibitory concentration (MIC) [24]: 0.78
3 | CCCCC(=O)OCC1C=C(C)C=CC(=O)C(C)CC(CC=O)C(OC2OC(C)C(O)C(N(C)C)C2O)C(C)C(O)CC(=O)OC1CC (stereo not drawn) [Compound 20] | 0 | 0.25 | 0.25 | 0.25 | 0.25 | 0.25 | 0.25 | 0.5 | 0.5 | 0.5 | 0.06 | 1.56 | 0.39 | 3.12 | < 0.05 | 3.12 | < 0.05 | 0.39 | 2 | 2 | –
4 | CCCC(=O)OCC1C=C(C)C=CC(=O)C(C)CC(CC=O)C(OC2OC(C)C(O)C(N(C)C)C2O)C(C)C(O)CC(=O)OC1CC (stereo not drawn) [Compound 16] | 60 | 0.25 | 0.25 | 0.25 | 0.25 | 0.25 | 0.25 | 0.25 | 0.25 | 0.5 | 0.06 | 1.56 | 0.195 | 0.78 | 0.097 | 3.12 | < 0.05 | 0.39 | 2 | 2 | –
5 | CCCCCCCC(=O)OCC1C=C(C)C=CC(=O)C(C)CC(CC=O)C(OC2OC(C)C(OC(C)=O)C(N(C)C)C2OC(C)=O)C(C)C(O)CC(=O)OC1CC (stereo not drawn) [Compound 23] | 100 | 0.5 | 0.5 | 0.5 | 0.5 | 0.5 | 0.25 | 1 | 1 | 1 | 0.25 | 6.25 | 0.39 | 3.12 | 0.39 | 6.25 | 0.097 | 0.78 | 8 | 8 | –
